Test results as given in publication PMC5215716, “A Target-Based Whole Cell Screen Approach To Identify Potential Inhibitors of Mycobacterium tuberculosis Signal Peptidase” (ACS Infectious Diseases, 2016).
In brackets after ≈: the same amount, converted by molar mass. Read-outs that look alike come from different tables or passages of the source. Marks after values point to notes of the source that are not given here.

What was measured:
[1] = test system: M. tuberculosis strain SPAM13C (LepB-UE); assay: microbe, parasite or virus in culture; format: cell-based, Mycobacterium tuberculosis; conditions: for MIC: Mycobacterium tuberculosis; for Change in potency against LepB-UE compared to compound 1: decrease in potency relative to compound 1
[2] = test system: wild-type (wt) M. tuberculosis strain; assay: microbe, parasite or virus in culture; format: cell-based, Mycobacterium tuberculosis; conditions: for MIC: Mycobacterium tuberculosis
[3] = in vitro; format: cell-based, African green monkey; conditions: African green monkey
Procedure: Cytotoxicity against African green monkey adult kidney cell (Vero cells) was determined as previously described using CellTiter-Glo reagent.[44] The concentration causing 50% growth inhibition (IC50) was calculated by fitting the inhibition curves using the Levenberg–Marquardt algorithm.

[4] = target: T1, LepB (Mycobacterium tuberculosis, UniProt P9WKA1); assay: LepB membrane assay (fluorogenic signal peptide cleavage by cell membrane fraction); format: biochemical; conditions: M. tuberculosis H37Rv cell membrane fraction, 2 μM peptide substrate, 4 h at 37 °C
T1 construct: we used purified membrane fractions to develop an in vitro assay for signal peptide cleavage; host or cells: γ-irradiated whole M. tuberculosis H37Rv; Triton X-114 membrane fraction
T1 sequence (P9WKA1 1-294): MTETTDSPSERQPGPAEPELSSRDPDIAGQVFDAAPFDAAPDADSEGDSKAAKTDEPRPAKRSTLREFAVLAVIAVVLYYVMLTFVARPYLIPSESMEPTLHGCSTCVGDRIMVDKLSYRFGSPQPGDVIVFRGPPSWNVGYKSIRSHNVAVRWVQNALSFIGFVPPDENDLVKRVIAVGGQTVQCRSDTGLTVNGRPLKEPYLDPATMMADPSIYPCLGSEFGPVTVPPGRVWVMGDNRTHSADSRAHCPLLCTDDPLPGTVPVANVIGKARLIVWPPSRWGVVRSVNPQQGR

[5] = 120 h, M. tuberculosis strain SPAM13C, OD590 after 5 days at 37 °C, average ± SD of at least two experiments, b = single value, read-out: LepB-UE MIC
[6] = 120 h, […], OD590 after 5 days at 37 °C, average ± SD of at least two experiments, b = single value, read-out: WT MIC
[7] = M. tuberculosis strain SPAM13C, OD590 after 5 days at 37 °C, average ± SD of at least two experiments, b = single value

Row | Compound | MIC [1, 5] [µM] | MIC [2, 6] [µM] | CC50 [3] [µM] | IC50 [4] [µM] | further results
1 | C/C(=N\Nc1nc(C)cc(C)n1)c1ccccn1 [Compound 1] | 3 ± 1.1 (≈ 0.724 µg/mL) | 18 ± 1 (≈ 4.34 µg/mL) | 2.3 | 39 | 
2 | Oc1ccccc1/C=N/Nc1nc(-c2ccccc2)cs1 [Compound 2] | 9.3 ± 3.2 (≈ 2.75 µg/mL) | 43 ± 26 (≈ 12.7 µg/mL) | 13 | > 200 | 
3 | O=[N+]([O-])c1ccc(O)c(/C=N/Nc2ccccn2)c1 [Compound 3] | 4.7 (≈ 1.21 µg/mL) | 11 (≈ 2.84 µg/mL) | 2.9 | 12 | 
4 | Cc1cnn(-c2cc(N/N=C/c3ccccc3O)ncn2)c1 [Compound 4] | 4.5 ± 2.5 (≈ 1.32 µg/mL) | 10 ± 7 (≈ 2.94 µg/mL) | 9.2 | > 200 | 
5 | Cc1ccc2cc(C)c(N/N=C/c3cc(Br)ccc3O)nc2c1 [Compound 5] | 7.4 ± 3.4 (≈ 2.74 µg/mL) | > 200 | 5 | > 200 | 
6 | Cc1nc2ccccc2nc1N/N=C/c1ccc(O)c(C)c1O [Compound 6] | 3.8 ± 1.3 (≈ 1.17 µg/mL) | 26 ± 12 (≈ 8.02 µg/mL) | 8.7 | > 200 | 
7 | Cc1nc2ccccc2nc1N/N=C/c1c(O)ccc2ccccc12 [Compound 7] | 3.9 ± 1.7 (≈ 1.28 µg/mL) | 14 ± 3 (≈ 4.6 µg/mL) | 5.2 | 130 | 
8 | Oc1ccc(/C=N/Nc2ccc3ccccc3n2)c(O)c1 [Compound 8] | 3.6 ± 1.1 (≈ 1.01 µg/mL) | > 200 | 6.7 | > 200 | 
9 | Cc1ccc(Nc2nc(N/N=C/c3ccccc3O)nc(N3CCOCC3)n2)c(Br)c1 [Compound 9] | 11 ± 1 (≈ 5.33 µg/mL) | 57 ± 24 (≈ 27.6 µg/mL) | 13 | > 200 | 
10 | COc1ccc(Nc2nc(NCc3ccco3)nc(N/N=C/c3ccccc3O)n2)cc1 [Compound 10] | 5.4 ± 2.6 (≈ 2.33 µg/mL) | > 200 | 4.3 | > 200 | 
11 | C/C(=N\NC(=O)c1ccc(N2CCCC2=O)cc1)c1ccccn1 [Compound 11] | 3.5 to 15 (≈ 1.13 to 4.84 µg/mL) | < 10 | 6.1 | 26 | LepB-UE MIC [1, 7]: 3.5 ± 1.8 µM; WT MIC ([2]; […], OD590 after 5 days at 37 °C, average ± SD of at least two experiments, b = single value): 14 ± 7 µM
12 | O=C(N/N=C/c1cccc2cccnc12)c1ccn(Cc2ccc(Cl)cc2)n1 [Compound 12] | 3.5 to 15 (≈ 1.36 to 5.85 µg/mL) | 22 ± 2 (≈ 8.58 µg/mL) | 34 | > 200 | LepB-UE MIC [1, 7]: 6.3 ± 3.5 µM
13 | O=C(N/N=C/c1cccc2cccnc12)c1ccn(Cc2ccc(Cl)cc2Cl)n1 [Compound 13] | 3.5 to 15 (≈ 1.49 to 6.36 µg/mL) | 18 ± 5 (≈ 7.64 µg/mL) | 21 | > 200 | LepB-UE MIC [1, 7]: 4.7 ± 0.6 µM
14 | CCOC(=O)CN1C(=O)/C(=N\NC(=O)c2ccccn2)c2ccccc21 [Compound 14] | 3.5 to 15 (≈ 1.23 to 5.29 µg/mL) | > 200 | 32 | > 200 | LepB-UE MIC [1, 7]: 4.9 ± 1.9 µM
15 | Cc1ccc(-c2cc(C(=O)N/N=C/c3ccccn3)[nH]n2)cc1 [Compound 15] |  | > 200 | 63 | > 200 | LepB-UE MIC [1, 7]: 15 ± 2.5 µM
16 | N=C(N/N=C/c1cc([N+](=O)[O-])ccc1O)c1ccccn1 [Compound 16] | 10 ± 3.4 (≈ 2.85 µg/mL) | > 200 | > 100 | 119 | 
17 | N=C(N/N=C/c1ccccc1O)c1ccccn1 [Compound 17] | 6.7 ± 1.6 (≈ 1.61 µg/mL) |  | > 100 |  | Increase in potency against wt compared to 16 ([2]; relative to compound 16): ~4 fold
18 | C/C(=N\NC(=S)Nc1cccc(C)c1)c1ccccc1O [Compound 18] | 9 ± 5.8 (≈ 2.69 µg/mL) | 18 ± 12 (≈ 5.39 µg/mL) | 11 |  | 
19 | CSC(=S)N/N=C(\c1ccccc1)c1ccccn1 [Compound 19] | 6 ± 4.2 (≈ 1.72 µg/mL) | 10 ± 3 (≈ 2.87 µg/mL) | 2.4 |  | 
20 | C/C(=N\Nc1nc(C)cc(C)n1)c1ccccc1O [Compound 24] | 30 to 90 (≈ 7.69 to 23.1 µg/mL) | 40 ± 8 (≈ 10.3 µg/mL) | 67 |  | LepB-UE MIC [1, 7]: 30 ± 3 µM; Change in potency against LepB-UE compared to compound 1 [1]: at least 10 fold

Row | Compound | MIC [1, 5] [µM] | MIC [2, 6] [µM] | CC50 [3] [µM] | IC50 [4] [µM] | further results
21 | CC(C)=NNc1nc(C)cc(C)n1 [Compound 25] | > 200 | > 200 | > 100 |  | 
22 | C/C(=N\Nc1nc(C)cc(C)n1)c1cccnc1 [Compound 26] | > 200 | > 200 |  |  | 
23 | C/C(=N\Nc1ccccn1)c1ccccn1 [Compound 29] | 130 (≈ 27.6 µg/mL) | > 200 | > 100 |  | Change in potency against LepB-UE compared to compound 1 [1]: 42 fold
24 | C/C(=N\NC(=N)c1ccccn1)c1ccccn1 [Compound 30] | 7.7 ± 0.2 (≈ 1.84 µg/mL) | 47 ± 6 (≈ 11.2 µg/mL) | 59 |  | Change in potency against LepB-UE compared to compound 1 [1]: activity was comparable to that of 1
25 | C/C(=N\NC(=O)c1ccncc1)c1ccccn1 [Compound 31] | 3.5 to 15 (≈ 0.841 to 3.6 µg/mL) | 4.7 ± 0.3 (≈ 1.13 µg/mL) | 10 |  | LepB-UE MIC [1, 7]: 3.6 ± 0.7 µM; Change in potency against LepB-UE compared to compound 1 [1]: activity was comparable to that of 1
26 | N=C(N/N=C/c1cccc(Cl)c1)c1ccccn1 [Compound 32] | 41 (≈ 10.6 µg/mL) | 59 (≈ 15.3 µg/mL) | 62 |  | 
27 | C/C(=N\NC(=O)c1ccc(Br)o1)c1ccccn1 [Compound 35] |  | 5.3 ± 3.3 (≈ 1.63 µg/mL) | 0.6 |  | LepB-UE MIC [1, 7]: 8.2^b μM
28 | C/C(=N\NC(=O)c1cc(Br)ccc1O)c1ccccn1 [Compound 37] | 2 to 2.5 (≈ 0.668 to 0.835 µg/mL) | 4.2 ± 2.6 (≈ 1.4 µg/mL) | 5.4 |  | LepB-UE MIC [1, 7]: 2.0 ± 0.5 µM
29 | C/C(=N\NC(N)=S)c1ccccn1 [Compound 41] | 3.6 (≈ 0.699 µg/mL) | 4 (≈ 0.777 µg/mL) | 22 |  | Differential activity (difference in MIC, wt versus LepB-UE) [1]: equally potent toward both wt and LepB-UE; Change in potency against LepB-UE compared to compound 1 [1]: comparable to that of 1
30 | CC1=NN(c2nc(C)cc(C)n2)C(=O)C1Cc1ccccc1 (stereo not drawn) [Compound 45] | 56 ± 3 (≈ 16.5 µg/mL) | 68 ± 12 (≈ 20 µg/mL) | > 100 |  | 
31 | CCOC(=O)c1c(C)nn(-c2nc(C)cc(C)n2)c1N [Compound 48] | 44 ± 6 (≈ 12.1 µg/mL) | > 200 | > 100 |  | 
32 | Cc1cc(C)nc(-n2nc(C)c3c2CC(c2cccs2)CC3=O)n1 (stereo not drawn) [Compound 49] | > 200 | > 200 |  |  | 
33 | Cc1cc(C)nc(-n2nc(C)c3c2NC(=O)CC3c2ccccc2)n1 (stereo not drawn) [Compound 50] | > 200 | > 200 | 66 |  | 
34 | CN(Cc1ccn(C)n1)C(=O)c1ccn(-c2ccc([N+](=O)[O-])cc2)n1 [Compound 51] | > 200 | > 200 | > 100 |  | 
35 | Cc1ccn(-c2ccc(C(=O)O)cc2)n1 [Compound 52] | > 200 | > 200 | > 100 |  | 
36 | Cc1ccc(C(N)=O)cc1-n1ccc(-c2cccnc2)n1 [Compound 53] | > 200 | > 200 | > 100 |  | 
37 | CC(O)c1nc2cc(-n3ccc(-c4cnccn4)n3)ccc2[nH]1 (stereo not drawn) [Compound 54] | > 200 | > 200 | > 100 |  | 
38 | OCc1ccccc1-n1ccc(-c2cccnc2)n1 [Compound 55] | > 200 | > 200 | > 100 |  | 
39 | Cc1ccc(C(N)=O)cc1-n1ccc(-c2cnccn2)n1 [Compound 56] | > 200 | > 200 | > 100 |  | 
40 | CO[C@H]1/C=C/O[C@@]2(C)Oc3c(C)c(O)c4c(O)c(c(/C=N/N5CCN(C)CC5)c(O)c4c3C2=O)NC(=O)/C(C)=C\C=C\[C@H](C)[C@H](O)[C@@H](C)[C@@H](O)[C@@H](C)[C@H](OC(C)=O)[C@@H]1C [rifampicin, reference compound] |  |  |  |  | MIC ([1]; rifampicin, LepB-UE strain, read-out: MIC against LepB-UE): 0.0054 ± 0.0009 µM (≈ 0.00444 µg/mL); MIC ([2]; read-out: MIC against wt): 0.0077 ± 0.0023 µM (≈ 0.00634 µg/mL)
